Reference: patent US5318985A, “Potentiation of NMDA antagonists” (Merrell Dow Pharmaceuticals Inc., priority 1991, dated 1994)
Structures can show the parent of a compound that is named as a salt. Where two headings read alike, the source gives them in different places.

Experiments:
[1] = tested on: sound induced seizures in DBA/2J audiogenic mice; assay: inhibition of sound induced seizures in audiogenic mice (anti-epileptic activity); assay type: in vivo; details: two hours before 110 decibels sound for 30 seconds, 120 min
From the text: One method for evaluating the potential anti-epileptic activity of selected compounds is by their ability to inhibit sound induced seizures in audiogenic mice. DBA/2J audiogenic mice experience seizures when exposed to loud noises. Compounds which prevent this phenomenon are considered to be antiepilpetic agents.
Two hours after administration, they were placed individually in glass jars and exposed to a sound stimulus of 110 decibels for 30 seconds. Each mouse was observed during the sound exposure for signs of seizure activity. A graph was prepared based upon the dose administered and the percentage of animals protected at that dose. An ED50 was calculated from the graph. In some mice the test was performed with the only modification being the addition of 100 mg/kg of probenecid IP.
The test was conducted in the following manner.
Five minutes after administration, they were placed individually in glass jars and exposed to a sound stimulus of 110 decibels for 30 seconds. Each mouse was observed during the sound exposure for signs of seizure activity. A graph was prepared based upon the dose administered and the percentage of animals protected at that dose. An ED50 was calculated from the graph. The test was also performed in separate mice with the only modification being the addition of 100 mg/kg or 200 mg/kg of probenecid IP.

[2] = tested on: quinolinic acid induced clonic seizures in mice; assay: inhibition of quinolinic acid (intracerebroventricular) induced clonic seizures in mice; assay type: in vivo
Procedure: The intracerebroventricular administration of quinolinic acid induces clonic seizures in mice.
In this test, groups of 10 mice were pretreated intravenously with varying doses of R-4-Oxo-5-phosphononorvaline(hereinafter compound) ranging from 1 to 16 mg/kg. Five minutes later the mice were administered 7.7 micrograms of quinolinic acid intracerebroventricularly in a volume of 5 microliters of saline. […] A graph was prepared based upon the dose administered and the percentage of animals protected at that dose. An ED50 was calculated from the graph. The test was then repeated in separate mice with the only modification being the addition of 100 mg/kg of probenecid IP. The following ED50 's were obtained.
The protocol described above was repeated except that the compounds was administered intraperitoneally (dosage ranging from 0.5 to 32 mg/kg) and the pretreatment time was extended to 30 minutes. The following ED50 's were obtained.

[3] = sodium salt; cited from earlier work

“3-[(phenacyl)methylamino]-2-carboxy-4,6-dichloroindole” gave an ED50 ([1]; compound alone, i.p. 25 to 400 mg/kg) of 183.7 mg/kg and an ED50 ([1]; compound i.p. + 100 mg/kg probenecid IP) of 45.4 mg/kg.

Molecule `N[C@H](CC(=O)CP(=O)(O)O)C(=O)O` [R-4-Oxo-5-phosphononorvaline] has an ED50 ([2]; Mus musculus, 5 min, compound alone, intravenous 1 to 16 mg/kg, five minutes before quinolinic acid 7.7 micrograms icv, read-out: ED50) of 4 mg/kg, an ED50 ([2]; Mus musculus, ip, 0.5 h, compound alone, intraperitoneal 0.5 to 32 mg/kg, 30 minutes pretreatment, read-out: ED50) of 16.3 mg/kg and an ED50 ([2]; compound intraperitoneal + probenecid (protocol as before: 100 mg/kg IP), 30 minutes pretreatment) of 8.0 mg/kg. The ED50 ([2]; compound intravenous + 100 mg/kg probenecid IP, five minutes before quinolinic acid 7.7 micrograms icv, 5 min) was 2.3 mg/kg.

For `CCCN(CCC)S(=O)(=O)c1ccc(C(=O)O)cc1` [sodium salt of probenecid], the water solubility [3] is given as “readily water soluble”.
